Reference: ChEMBL document CHEMBL1201862, “PubChem BioAssay data set” (2004)
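The compound was tested at five concentrations on cells cultured in 96-well plates, with a 48-hour exposure period. GI50 is the concentration that inhibits growth by half.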 Calls of active or inactive are those of the source. Rule as the data show it: active = GI50 up to about 1.1 µM and inactive = higher.

What was measured:
Experiment in all cases: NCI-60 cell line screen, 48 h
MDA-MB-435 = tested on: MDA-MB-435
RXF 393 = tested on: RXF 393
BT-549 = tested on: BT-549
NCI/ADR-RES = tested on: NCI/ADR-RES
MCF7 = tested on: MCF7
Hs-578T = tested on: Hs-578T
RPMI-8226 = tested on: RPMI-8226
T47D = tested on: T47D
HOP-62 = tested on: HOP-62
MDA-N = tested on: MDA-N
PC-3 = tested on: PC-3
MDA-MB-231 = tested on: MDA-MB-231
DU-145 = tested on: DU-145
EKVX = tested on: EKVX
SF-268 = tested on: SF-268
NCI-H23 = tested on: NCI-H23
UACC-62 = tested on: UACC-62
OVCAR-4 = tested on: OVCAR-4
COLO 205 = tested on: COLO 205
SW-620 = tested on: SW-620
UO-31 = tested on: UO-31
SF-539 = tested on: SF-539
HT-29 = tested on: HT-29
SK-MEL-2 = tested on: SK-MEL-2
SNB-19 = tested on: SNB-19
HCT-116 = tested on: HCT-116
SNB-75 = tested on: SNB-75
SK-OV-3 = tested on: SK-OV-3
SF-295 = tested on: SF-295
NCI-H460 = tested on: NCI-H460
OVCAR-3 = tested on: OVCAR-3
SK-MEL-5 = tested on: SK-MEL-5
HL-60 = tested on: HL-60
A549 = tested on: A549
KM12 = tested on: KM12
ACHN = tested on: ACHN
LOX IMVI = tested on: LOX IMVI
UACC-257 = tested on: UACC-257
CAKI-1 = tested on: CAKI-1
TK-10 = tested on: TK-10
IGROV-1 = tested on: IGROV-1
786-0 = tested on: 786-0
U-251 = tested on: U-251
NCI-H226 = tested on: NCI-H226
M14 = tested on: M14
CCRF-CEM = tested on: CCRF-CEM
HCT-15 = tested on: HCT-15
SR = tested on: SR
SN12C = tested on: SN12C
K562 = tested on: K562
OVCAR-5 = tested on: OVCAR-5
OVCAR-8 = tested on: OVCAR-8
HCC 2998 = tested on: HCC 2998
MOLT-4 = tested on: MOLT-4
SK-MEL-28 = tested on: SK-MEL-28
Malme-3M = tested on: Malme-3M

In the case of `O=C(O)C1NCCc2c1[nH]c1ccccc21` (stereo not drawn), the GI50 (MDA-MB-435) is reported as > 10 µM (inactive), the GI50 (RXF 393) is reported as > 10 µM (inactive) and the GI50 (BT-549) is reported as > 10 µM (inactive). For the same molecule, the GI50 (NCI/ADR-RES) was > 10 µM (inactive), the GI50 (MCF7) was > 10 µM (inactive) and the GI50 (Hs-578T) was > 10 µM (inactive). The GI50 (RPMI-8226) was > 10 µM (inactive), the GI50 (T47D) was > 10 µM (inactive) and the GI50 (HOP-62) was > 10 µM (inactive). For the same molecule, the GI50 (MDA-N) was > 10 µM (inactive), the GI50 (PC-3) was > 10 µM (inactive) and the GI50 (MDA-MB-231) was > 10 µM (inactive). For the same molecule, the GI50 (DU-145) was > 10 µM (inactive).
`C=C(COC(=O)C(C)C)[C@H]1Oc2ccc(C(C)=O)cc2[C@@H]1OC(=O)C(C)C` was tested, and the GI50 (EKVX) was > 100 µM (inactive), the GI50 (SF-268) was > 100 µM (inactive) and the GI50 (MDA-MB-435) was > 100 µM (inactive). For the same molecule, the GI50 (NCI-H23) was > 100 µM (inactive), the GI50 (UACC-62) was > 100 µM (inactive) and the GI50 (RXF 393) was > 100 µM (inactive). For the same molecule, the GI50 (OVCAR-4) was > 100 µM (inactive), the GI50 (COLO 205) was > 100 µM (inactive) and the GI50 (SW-620) was > 100 µM (inactive). For the same molecule, the GI50 (UO-31) was > 100 µM (inactive), the GI50 (SF-539) was > 100 µM (inactive) and the GI50 (BT-549) was > 100 µM (inactive). The GI50 (HT-29) was > 100 µM (inactive), the GI50 (SK-MEL-2) was > 100 µM (inactive) and the GI50 (SNB-19) was > 100 µM (inactive). The GI50 (HCT-116) was > 100 µM (inactive), the GI50 (SNB-75) was > 100 µM (inactive) and the GI50 (MCF7) was > 100 µM (inactive). For the same molecule, the GI50 (SK-OV-3) was > 100 µM (inactive), the GI50 (SF-295) was > 100 µM (inactive) and the GI50 (NCI-H460) was > 100 µM (inactive). For the same molecule, the GI50 (OVCAR-3) was > 100 µM (inactive), the GI50 (SK-MEL-5) was > 100 µM (inactive) and the GI50 (Hs-578T) was 42.6 µM (inactive). The GI50 (HL-60) was 53.6 µM (inactive), the GI50 (RPMI-8226) was 76.4 µM (inactive) and the GI50 (A549) was > 100 µM (inactive). The GI50 (KM12) was > 100 µM (inactive), the GI50 (ACHN) was > 100 µM (inactive) and the GI50 (LOX IMVI) was > 100 µM (inactive). The GI50 (UACC-257) was > 100 µM (inactive), the GI50 (T47D) was > 100 µM (inactive) and the GI50 (CAKI-1) was > 100 µM (inactive). The GI50 (HOP-62) was > 100 µM (inactive), the GI50 (TK-10) was > 100 µM (inactive) and the GI50 (IGROV-1) was > 100 µM (inactive). The GI50 (786-0) was > 100 µM (inactive), the GI50 (U-251) was > 100 µM (inactive) and the GI50 (NCI-H226) was > 100 µM (inactive). For the same molecule, the GI50 (M14) was > 100 µM (inactive), the GI50 (CCRF-CEM) was > 100 µM (inactive) and the GI50 (HCT-15) was greater than 100 µM. The GI50 (SR) was > 100 µM (inactive), the GI50 (MDA-N) was > 100 µM (inactive) and the GI50 (SN12C) was > 100 µM (inactive). The GI50 (K562) was > 100 µM (inactive), the GI50 (OVCAR-5) was > 100 µM (inactive) and the GI50 (OVCAR-8) was > 100 µM (inactive). The GI50 (HCC 2998) was > 100 µM (inactive), the GI50 (MOLT-4) was > 100 µM (inactive) and the GI50 (SK-MEL-28) was > 100 µM (inactive). For the same molecule, the GI50 (Malme-3M) was > 100 µM (inactive), the GI50 (PC-3) was > 100 µM (inactive) and the GI50 (MDA-MB-231) was > 100 µM (inactive). For the same molecule, the GI50 (DU-145) was > 100 µM (inactive).
